Earlier results in patent US11730619B2, “Systems and methods for determining failure of intragastric devices” (RESHAPE LIFESCIENCES INC., priority 2015, dated 2023).
Structures can show the parent of a compound that is named as a salt. Where two headings read alike, the source gives them in different places.

What was measured:
[1] = tested on: rat
[2] = for Solubility: solvent not given
[3] = Meng et al. 2013
[4] = cell wraps: Generally well-tolerated in patients; Merck Index
[5] = pH 3

Which “LD50 (rats)” value ([1]; rats, second of two values, Merck Index) does the source give for CN(C)CCC=C1c2ccccc2CCc2ccccc21 [Amitriptyline Hydrochloride] here?
The value was 380 mg/kg.

And the “Solubility in water” value ([2]; water, Merck Index)?
Its value is “Salt is freely soluble in”.

Which Solubility in water ([2]; Merck Index) does the source give for Cc1cc2nc3c(=O)[nH]c(=O)nc-3n(C[C@H](O)[C@H](O)[C@H](O)CO)c2cc1C [B vitamins (e.g. Riboflavin), Riboflavin] here?
Its Solubility in water is “Solubility: 1 g in 3 L g in 3 L water”.

Which “LD50 (rat, oral)” value ([1]; rat, oral, Baker MSDS sheet) does the source give for O=C1/C(=C2\Nc3ccc(S(=O)(=O)[O-])cc3C2=O)Nc2ccc(S(=O)(=O)[O-])cc21.[Na+].[Na+] [Indigo carmine] here?
Its value is 2000 mg/kg (Baker MSDS sheet).

With CN(C)c1ccc2c(c1)Sc1cc(N(C)C)ccc1N2 [Leukomethylene blue] as the molecule, how does the Excretion in urine ([3]; stabilized in the urine) read?
Its Excretion in urine is “excreted mostly unaltered”.

Which “Solubility in hot water” value ([2]; hot water, Merck Index) does the source give for Cc1cc2nc3[nH]c(=O)[nH]c(=O)c3nc2cc1C [Lumichrome] here?
Its value is “Sparingly soluble in hot water”.

And the “Solubility” value [2]?
The value was “poor solubility”.

For Cc1cc2nc3c(=O)[nH]c(=O)nc-3n(C)c2cc1C [Lumiflavine], which “Solubility” value [2] is on record?
Its value is “poor solubility”.

What about the “Solubility in water” value ([2]; water, Merck Index) of the same molecule?
Its value is “Very sparingly soluble in water”.

For COc1ccccc1OCC(O)COC(N)=O (centres unmarked) [Methocarbamol], which “Tolerability in patients” value [4] is on record?
The value was “Generally well-”.

And the Water solubility ([2]; @ 20° C., Merck Index)?
The Water solubility was “Water soluble 2.5 g/100 g/100 mL”.

Which “Solubility in water” value ([2]; water, Merck Index) does the source give for O=C(O)c1cc(O)c2c(c1)[C@H]([C@H]1c3cc(C(=O)O)cc(O)c3C(=O)c3c(O[C@@H]4O[C@H](CO)[C@@H](O)[C@H](O)[C@H]4O)cccc31)c1cccc(O[C@@H]3O[C@H](CO)[C@@H](O)[C@H](O)[C@H]3O)c1C2=O [Sennoside A] here?
Its value is “insoluble in water”.

With O=C(O)c1cc(O)c2c(c1)[C@@H]([C@H]1c3cc(C(=O)O)cc(O)c3C(=O)c3c(O[C@@H]4O[C@H](CO)[C@@H](O)[C@H](O)[C@H]4O)cccc31)c1cccc(O[C@@H]3O[C@H](CO)[C@@H](O)[C@H](O)[C@H]3O)c1C2=O [Sennoside B] as the molecule, how does the “Solubility in water relative to Sennoside A” value ([2]; cell wraps: more soluble in water than Sennoside A, Merck) read?
The value was “Sennoside B is more”.

Which “Tolerability in patients” value [4] does the source give for Nc1nc(N)c2nc(-c3ccccc3)c(N)nc2n1 [Triamterene] here?
Its value is “Generally well-”.

And the “Solubility: parts water in which 1 part is soluble” value ([2]; 1 part soluble in 1000 parts water, Merck Index)?
The value was 1 part soluble in 1000 parts water.

With CN(C)c1ccc2nc3ccc(=[N+](C)C)cc-3sc2c1 [methylene blue] as the molecule, how does the “Conversion on passage through the gastrointestinal tract” value [3] read?
Its value is “reduced to leukomethylene blue”.

Which “pH range of stability” value [5] does the source give for Betalain [Betalain (including betanin)] here?
Its value is “Stable between pH 3”.
